Laboratory results from publication PMC12216625, “Identification of nanomolar adenosine A2A receptor ligands using reinforcement learning and structure-based drug design” (Nature Communications, 2025).

Legend:
[1] = biological target: T1, A2A receptor (human, wild-type) (Homo sapiens, UniProt P29274); test: [3H]-ZM241385 radioligand competition, filtration; type: binding; settings: read-out: A2A / pKi (± SD) (converted)
T1 construct: gene ADORA2A; wild-type human A2A; BacMam-transfected cells (CHO-K1 for the cAMP assay)
Excerpt: [3H]-ZM241385 radioligand competition, filtration on A2A receptor (human, wild-type)

[2] = biological target: T1, A2A receptor (human, wild-type); test: cAMP accumulation HTRF, agonist mode (compound alone); type: cell-based; settings: read-out: A2A / pEC50 (± SD) (converted)
Excerpt: cAMP accumulation HTRF, agonist mode (compound alone) on A2A receptor (human, wild-type)

[3] = biological target: T1, A2A receptor (human, wild-type); test: cAMP accumulation HTRF, antagonist mode; type: cell-based; settings: read-out: A2A / pIC50 (± SD) (converted)
Excerpt: cAMP accumulation HTRF, antagonist mode on A2A receptor (human, wild-type)

T1 sequence (P29274 whole entry): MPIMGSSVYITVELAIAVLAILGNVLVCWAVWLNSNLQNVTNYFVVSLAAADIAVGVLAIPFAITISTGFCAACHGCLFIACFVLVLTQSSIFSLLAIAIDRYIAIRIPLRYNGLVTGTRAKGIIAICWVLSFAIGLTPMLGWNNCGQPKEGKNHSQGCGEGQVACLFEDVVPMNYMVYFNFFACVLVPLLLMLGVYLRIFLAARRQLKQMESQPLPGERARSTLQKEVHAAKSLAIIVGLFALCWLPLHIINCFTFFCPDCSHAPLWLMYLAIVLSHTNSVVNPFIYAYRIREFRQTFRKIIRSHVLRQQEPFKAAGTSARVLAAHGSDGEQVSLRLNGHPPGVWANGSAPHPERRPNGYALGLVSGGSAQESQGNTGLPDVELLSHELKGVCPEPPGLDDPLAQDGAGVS

Ki [1] [nM] | EC50 [2] [nM] | IC50 [3] [nM] | SMILES
15800 |  |  | Cc1ccc(-c2nc(N)nn2-c2ccccc2)cc1 [compound 1, Compound 1]
1260 |  |  | Nc1cc(NCc2ccccc2F)nc(-c2ccccn2)n1 [compound 3, Compound 3]
2000 | 50.1 |  | Nc1nc(-c2ccc(O)cc2)c2cc(F)ccc2n1 [compound 5, Compound 5]
1260 |  |  | Nc1nc2cc(-c3ccoc3)cc(-c3ccco3)n2n1 [compound 6, Compound 6]
50.1 | 20 | 25.1 | Nc1nc(-c2cccc(-n3ccnc3)n2)nc(-c2ccco2)n1 [compound 7, Compound 7]
31.6 | 316 | 20 | Nc1nc(-c2ccco2)nc2c1ccn2-c1ccncc1 [compound 9, Compound 9]
